Test results from patent US12268727B2, “Bioactive polypeptides for improvements in plant protection, growth and productivity” (priority 2017, dated 2025).

Experiments:
Format in all cases: in vivo
[1] = system: Cercospora kikuchii; experiment: Cercospora leaf blight severity, field trials in Paraguay; settings: two foliar applications from R1, 150 and 300 mL/Ha
Protocol: FOX is a commercially available foliar fungicide in South America with limited efficacy for preventative and curative treatment of Asian soybean rust caused by Phakopsora pachyrhizi and Cercospora leaf blight of soybean caused by Cercospora kikuchii applied as a foliar spray following the recommendations on the specimen label at a use rate of 5.48 fluid ounces per acre (Fl. oz/Ac) (400 mL/hectare). Beginning at the R1 stage of development, soybean plants received two foliar applications of the compositions described in Table 90 with an interval of 13-14 days between spray applications. […] Disease assessments for trials that were naturally infected were scored for the severity of infection (0-100% of foliage affected) were scored for 10 plants within each plot for both Asian soybean rust caused by Phakopsora pachyrhizi and Cercospora leaf blight of soybean caused by Cercospora kikuchii at the R4-R5 stage of soy development (4-15 days after second foliar application) with guidance from Godoy et al (1997; Journal of plant diseases and protection 104:336-345). Percent phytotoxicity (0-100% of foliage affected) was also scored at the R4-R5 stage of soy development. […] Standard deviation for each treatment between the three sites was calculated. […]

[2] = system: soybean; experiment: Foliar application to soybean, field yield trials; settings: foliar at R2; AG2836; 7 US Midwest locations; use rate 0.33 Fl. oz/Ac
[3] = system: corn; settings: 8.0 Fl. oz/Ac
[4] = system: soybean; experiment: Foliar application to soybean, field yield trials
[5] = system: tomatoes; experiment: Foliar application to tomato, yield
Protocol: Small scale plots were designed to simulate commercial growing conditions for tomatoes. Two hybrids of tomatoes, JetSetter (Trial 1) and Better Big Boy (Trial 2) were started as transplants in the greenhouse 42 to 56 days prior to planting in the raised field beds. Tomatoes were transplanted once soil temperatures three inches (7.6 cm) beneath the soil surface reach 60° F. (15.5° C.). Tomatoes were grown on raised beds covered with black plastic mulch. Plants were grown using drip irrigation and fertilizer applied following grower guidelines throughout the growing season to ensure optimum plant growth and yields. Small raised bed plots were designed to simulate the planting densities used by commercial growers that generally plant 2,600 to 5,800 plants per acre in single rows with 18 to 30 inches (46 to 76 cm) between plants in the row on 5- to 6.5-ft (1.5 to 2 m) centers.
Foliar treatments of Bt.4Q7 Flg22 and Ec. […] Replicated trials were conducted at the University of Missouri (Columbia, Mo.) in July. Control plants were treated with equal volumes (use rates) of water. Effects of the foliar treatments on increasing yield in tomatoes were determined and reported as normalized to the water control treatment.
In another experiment, tomato plants (hybrid: Better Boy), cultivated as described in the previous example, were treated with a formulation of Bt.4Q7 Flg22 at the first bloom stage. The formulation used consisted of the retro inverso D RI Bt.4Q7 Flg22 applied with 0.01% (v/v) non-ionic surfactant. […] At harvest, the yield was measured as the number of fruits per plant, the weight (grams) per fruit and the total yield (lbs/Ac). Table 29 reports the yield as a percent comparison or change to the non-treated control (water only) plants.
Foliar application treatments of Gm.RHPP (SEQ ID NO: 600) was applied as an exogenous spray at the pre-bloom stage and used to increase yield in tomatoes. Two tomato hybrids (JetSetter and Better Big Boy) were planted in small scale plots as described in Example 12. […] Replicated trials were conducted at the US Midwest (Missouri) in July. The foliar treatment of Gm.RHPP on tomato plants was compared to the control (water applied at same use rate). Effects of the foliar treatments on increasing yield in tomatoes were determined and reported as normalized to the water control treatment and reported as the average percentage change in yield over the average control yield in Table 41.
Small scale plots were designed to simulate commercial growing conditions for tomatoes. Tomato plants, variety Roma were started from transplants that were grown in a greenhouse for 45 days prior to planting into 2 raised field row beds with 2 feet (0.6 meters) between each transplant with an average of 30 plants per row bed. […] Tomatoes were grown on raised beds covered with black plastic mulch. Plants were grown using drip irrigation and fertilizer (80 lbs. or 36.3 kg) nitrogen; 100 lbs. (45.4 kg) phosphate, and 100 lbs. (45.4 kg) potash or potassium) applied following grower guidelines throughout the growing season to provide for optimum plant growth and yields. Small raised bed plots were designed to simulate the planting densities used by commercial growers that generally plant 2,600 to 5,800 plants per acre in single rows with 45.7 to 76.2 cm between plants in the row on 1.5- to 2-meter centers. [Orzolek et al., “Agricultural Alternatives: Tomato Production.” University Park: Penn State Extension, 2016].
Foliar treatments using Bt.4Q7Flg22 and Gm.RHPP were applied on the tomato plants directly at early bloom (first flower) stage.

[6] = foliar at V5, 100 μM, 6 US Midwest locations
[7] = foliar at R2, 7 US Midwest locations, use rate 0.33 Fl. oz/Ac
[8] = foliar at R2, average of AG3536 and AG3832, use rate RHPP 4.0, N-RAGE MAX 128 Fl. oz/Ac
[9] = foliar 1 Fl. oz/Ac at early bloom, vs water control

GGIRAAPTGNER (Glycine max) [RHPP, Root Hair Promoting Peptide from Glycine max]
less Cercospora leaf area damage than untreated control [1]: 3.3-4.5%
Average Total Yield Bu/Ac Variety 1 [2]: 59.15 Bu/Ac
average yield ([3]; V5 corn, 6 locations combined): more than 209 Bu/Ac
yield increase vs surfactant control ([3]; V5 corn, 6 locations combined): 3.52 Bu/Ac
Average Change in Bu/Ac compared to surfactant only control [3, 6]: (+3.52; Bu/Ac
Average Yield Bu/Ac [3, 6]: 209.67 Bu/Ac
win rate ([3]; foliar at V5, 100 μM, vs surfactant only control): 64%
yield advantage on top of foliar fertilizer ([4]; 8 fl oz/Ac with foliar fertilizer, 11 sites): 1 Bu/AC
yield increase over non-treated control ([4]; R2 foliar, 2 varieties, 7 locations, RHPP alone 4.0 Fl. oz/Ac): 1.26 Bu/Ac
yield advantage ([4]; R2 foliar, 4 Fl. oz/Ac, 11 sites): 0.31 Bu/Ac
average yield change vs non-treated control ([4]; R2 foliar, 11 locations, Flg22 polypeptides 0.33 Fl. oz/Ac, RHPP 4 Fl. oz/Ac): 1.2 Bu/Ac
yield increase compared to fertilizer alone ([4]; RHPP 1 Fl. oz/Ac (300 nM) with N-RAGE MAX, R2, variety AG3536, 5 locations): 1.4 Bu/Ac
Average Bu/Ac Increase compared to Control Variety 1 and 2 [4, 7]: +0.35 Bu/Ac
Average Total Yield Bu/Ac Variety 1 and 2 [4, 7]: 60.92 Bu/Ac
Average Total Yield Bu/Ac Variety 2 ([4]; foliar at R2, AG3536, 7 US Midwest locations, use rate 0.33 Fl. oz/Ac): 62.44 Bu/Ac
Average Bu/Ac Change compared to Control Variety 1 and 2 [4, 8]: +0.9 Bu/Ac
Average Total Yield Bu/Ac Variety 1 and 2 [4, 8]: 63.23 Bu/Ac
Average Total Yield Bu/Ac Variety 1 ([4]; foliar at R2, variety 1 (AG3536), 5 US Midwest locations, use rate RHPP 4.0, N-RAGE MAX 128 Fl. oz/Ac): 65.42 Bu/Ac
Average Total Yield Bu/Ac Variety 2 ([4]; foliar at R2, variety 2 (AG3832), 5 US Midwest locations, use rate RHPP 4.0, N-RAGE MAX 128 Fl. oz/Ac): 61.04 Bu/Ac
increase in tomato yield over control ([5]; 1 Fl. oz/Ac, Better Big Boy): 10%
increase in tomato yield over control ([5]; 1 Fl. oz/Ac, Jetsetter hybrid): 93%
average increase in tomato yield over control, two hybrids ([5]; 1 Fl. oz/Ac, early bloom): 52%
Percentage Change in Fruit Weight Compared to No-Spray Control ([5]; Roma tomato, foliar at early bloom, Bt.4Q7Flg22 16.7 μM 4.0 Fl. oz/Ac, Gm.RHPP 100 μM 3.2 Fl. oz/Ac): +1.99%
Average Fruit Weight (grams) per Plant ([5]; Roma tomato, foliar at early bloom, Bt.4Q7Flg22 16.7 μM 4.0 Fl. oz/Ac, Gm.RHPP 100 μM 3.2 Fl. oz/Ac, 2 harvests): 1397.1 grams
change in fruit weight per plant vs no spray control ([5]; Roma, Bt.4Q7Flg22 16.7 μM at 4.0 Fl. oz/Ac, Gm.RHPP 100 μM at 3.2 Fl. oz/Ac): ~2%
Average Trials 1 & 2 Percent Change Yield over Avg. Control ([5]; foliar 1 Fl. oz/Ac at early bloom, both tomato hybrids): +52%
Trial 1: Percent Change in Yield over Avg. Control; Hybrid: Jetsetter [5, 9]: +93%
Trial 2: Percent Change in Yield over Avg. Control; Hybrid: Better Big Boy [5, 9]: +10%
